According to patent US11639493B2, “Consortium of bacteria that mineralises lipids, starches and sugars (carbohydrates) and are resistant to lethal doses of thiodicarb (carbamate) and bifenthrin (pyrethroid) for inoculation into organic matter of different origins” (priority 2018, dated 2023):

How the values were obtained:
Type in all cases: cell-based
[1] = test system: Bacillus brevis; assay: Adaptation stages: mortality of Bacillus brevis on growth media with thiodicarb or bifenthrin
Experimental: (§1) Bacteria strains, nitrifiers, phosphorus solubilizers and antagonists for pathogens: • a) Arthrobacter globiformis • b) Bacillus megaterium • c) Bacillus brevis • d) Bacillus thuringiensis Preparation for Stage Development • 1. Glass material is sterilized in an autoclave. • 2. The required amount of growth media is prepared, DFA Agar, Malt Agar (Corn Agar) and (PDA) to obtain viable colonies. • 3. Lethal dose (LD) applied to a hectare is established, for thiodicarb as well as bifenthrin. 10 Petri dishes are prepared with 0.1 LD of thiodicarb of bifenthrin. Dishes are incubated at 25° C. for 72 hours with cold light. Methodology • a. Physical and chemical variables obtained in the research are maintained using traces. Petri dishes are placed inside the laminar flow chamber along with the diluted samples, to seed microorganisms in the dishes, a one ml sample of the strain is taken with an automated pipette, 10^−1 and 10^−2 solutions are performed and each solution is homogenized. • b. Having the petri dishes with the sterile and cold growth media, it is homogenized with 6 right to left movements, 6 clockwise movements, 6 counterclockwise movements and 6 front to back movements over a flat horizontal surface until the inoculum is completely integrated into the media, stand until it solidifies and each dish is covered with parafilm to avoid contamination during incubation. • c. The adapted consortium conditions are kept for the starting media (habitat), humidity, pH, temperature, chemical traceability, lighting and airing, Gram colorations and malachite green for the differentiation and observation of cellular structures. • d. Dishes with thiodicarb and Bifenthrin are placed inside the incubator at 25° C. for 72 hours with a cold light lamp. • e. Inoculated dishes are incubated for 72 hours and the bacteria growth will be recorded, the product concentration impact is determined over the plate growth (12 hours of incubation). • f. The residual impact of the product is reviewed after 7 days in the malt agar and PDA agar media. • g. If there is no growth over 10%, the process is repeated until a mortality under 90% is obtained. • h. The colony diameter is determined using a graduated ruler, data is recorded subtracting the diameter of the seeded dish, from which the effect over the mycelial growth will be determined compared to the control (not poisoned MA, denominated as percentage of inhibition of radial growth (PIRG %). • i. Progress is recorded daily and after 7 days analysis of an acceptable coverage is performed, if not, the procedure is repeated as many times as required. • j. From the 10 Petri dishes for each microorganism, the one with the lowest mortality is the one that will continue with the following study. • k. The study is performed again using this percentage until coverage increases and so on, the addition of thiodicarb and bifenthrin is alternated with the LD in intervals of 0.1 LD; all these experiments have been designed with the experimental strains and a control. • l. With the data obtained from the bacterial growth, the percentage of inhibition of gradual growth is obtained, the data is transformed for its analysis with the expression 2 arc sin. A two-way classification analysis of variance is applied and later the Turkey test is performed using a 5% probability.
(§2) Characteristics for this procedure were recorded during all stages through the following indicators: • a. Growth speed • b. Percentage of inhibition measured in Number of CFU/mm • c. Percentage of poison resistance
Beginning with habitat conditions obtained in the adaptation to organophosphate, organochlorine compounds and mercury from the microorganisms at the E-38 pH: 7.2, Humidity: 36%, thermoresistant and facultative anaerobic. These conditions are the starting point to adapt the strain to thiodicarb and bifenthrin.
To adapt this microorganism, 51 stages were performed, beginning the process with the conventional growth media. […]

[2] = test system: Arthrobacter globiformis; assay: Adaptation stages: mortality of Arthrobacter globiformis on growth media with thiodicarb or bifenthrin
Experimental: as §1, §2
Habitat conditions are maintained, conditions obtained during the adaptation to organophosphorus and organochlorinated compounds and mercury of the microorganism, pH: 7.0, humidity: 35%, Temperature: Thermoresistant. These conditions are the starting point to adapt the strain to the new pollutants: thiodicarb (carbamate) and bifenthrin (pyrethroid). […]

[3] = test system: Bacillus thuringiensis; assay: Adaptation stages: mortality of Bacillus thuringiensis on growth media with thiodicarb or bifenthrin
Experimental: as §1, §2
Beginning with habitat conditions obtained in the adaptation to organophosphate, organochlorine compounds and mercury from the microorganisms at the E-38 pH: 7.2, Humidity: 52%, thermoresistant (74° C.), […] and facultative anaerobic. These conditions are the starting point to adapt the strain to thiodicarb and bifenthrin. During all stages a cold light lamp will be used to adapt the microorganism to sunlight. […]

[4] = test system: Bacillus subtillis; assay: Adaptation stages: mortality of Bacillus subtillis on growth media with thiodicarb or bifenthrin
[5] = stages E-5 and E-6, 0.1 LD (0.00000006 gr)
[6] = stages E-7 and E-8, 0.2 LD (0.00000012 gr)
[7] = stages E-13 and E-14, 0.3 LD (0.00000018 gr)
[8] = stages E-21 and E-22, 0.5 LD (0.00000030 gr)
[9] = stages E-29 and E-30, 0.7 LD (0.00000036 gr)
[10] = stages E-37 and E-38, 0.9 LD (0.00000042 gr)
[11] = stages E-45 and E-46, 1.1 LD (0.00000054 gr)

Cc1c(COC(=O)[C@@H]2[C@H](/C=C(\Cl)C(F)(F)F)C2(C)C)cccc1-c1ccccc1 (racemic) [bifenthrin, 2-methyl biphenyl-3-ilmetil(2)-(1RS,3RS)-3-(2-chlorine 3,3,3-trifluoropropene)-2,2-dimethyl-cyclo-propane-carboxylate] was tested, and the “Resistant to: FINAL” value ([1]; Bacillus brevis at the end of the adaptation process) was 1.3 LD of, the mortality [1, 5] was 73% and the mortality [1, 6] was 70 to 68%. The mortality [1, 7] was 67%, the mortality [1, 8] was 55% and the mortality [1, 9] was 44%. The mortality [1, 10] was 26%, the mortality [1, 11] was 20% and the mortality [2, 5] was 84%. It also gave a mortality [2, 6] of 75%, a mortality [2, 7] of 70% and a mortality [2, 8] of 56%. The mortality [2, 9] was 40%, the mortality [2, 10] was 25% and the initial mortality ([2]; summary of the adaptation tests with increasing concentrations of thiodicarb and bifenthrin) was ~82%. The “Resistant to: FINAL” value ([3]; B. Thuringiensis at the end of the adaptation process) was 1.2 LD of, the mortality [3, 5] was 68 to 65% and the mortality [3, 6] was 64 to 63%. The mortality [3, 7] was 57 to 55%, the mortality [3, 8] was 50 to 45% and the mortality [3, 9] was 36 to 33%. The mortality [3, 10] was 30 to 28%, the mortality [3, 11] was 15 to 12% and the “Resistant to: FINAL” value ([4]; Bacillus subtillis at the end of the adaptation process) was 1 LD of. For the same molecule, the mortality [4, 5] was 72 to 71%, the mortality [4, 6] was 70 to 68% and the mortality [4, 7] was 65%. For the same molecule, the mortality [4, 8] was 47 to 45%, the mortality [4, 9] was 25 to 23% and the mortality [4, 10] was 8 to 6%.
